Data from ChEMBL document CHEMBL5223082, “Alkyl-Aryl-Vancomycins: Multimodal Glycopeptides with Weak Dependence on the Bacterial Metabolic State” (J Med Chem, 2021).
Active and inactive are the calls of the source. The rule behind the calls is not given here.

How the values were obtained:
[1] = system: Enterococcus; assay: Antibacterial activity against Vancomycin-resistant Enterococci NR30903 assessed as inhibition of bacterial growth incubated for 18 to 24 hrs by CLSI microbroth dilution method; format: functional; details: time 18-24 hrs
[2] = system: Enterococcus; assay: Bactericidal activity against Vancomycin-resistant Enterococci assessed as log reduction in bacterial colonies at 4XMIC incubated for 6 hrs in broth solution followed by culturing for 24 hrs on agar plate by spot plating method; format: functional; details: time 30 hrs
[3] = system: Staphylococcus aureus; assay: Antibacterial activity against Methicillin-resistant Staphylococcus aureus ATCC 33591 assessed as inhibition of bacterial growth preincubated compound with N,N'-diacetyl-L-Lys-D-Ala-D-Ala for 10 mins followed by incubation with bacterial culture for 18 to 24 hrs by CLSI microbroth dilution method; format: functional; details: time 1090-1450 min
[4] = system: Cell membrane; assay: Induction of cytoplasmic membrane permeabilization in Methicillin-resistant Staphylococcus aureus ATCC 33591 assessed as increase in fluorescence intensity at 10 uM measured for 30 to 40 mins by Propidium iodide staining based fluorescence analysis; format: subcellular; details: time 30-40 min
[5] = Toxicity in BALB/c mouse assessed as animal's survival rate at 55.5 mg/kg, ip measured for 14 days; format: organism-based; details: in vivo, time 14 day

SMILES: CCCCCCCCCCNC(=O)C[N+](C)(C)CCCNC(=O)c1ccc(CN[C@@]2(C)C[C@H](O[C@H]3[C@H](Oc4c5cc6cc4Oc4ccc(cc4Cl)[C@@H](O)[C@@H](NC(=O)[C@@H](CC(C)C)NC)C(=O)N[C@@H](CC(N)=O)C(=O)N[C@H]6C(=O)N[C@H]4C(=O)N[C@H](C(=O)N[C@H](C(=O)O)c6cc(O)cc(O)c6-c6cc4ccc6O)[C@H](O)c4ccc(c(Cl)c4)O5)O[C@H](CO)[C@@H](O)[C@@H]3O)O[C@@H](C)[C@H]2O)cc1
- MIC [1]: 0.45 µM
- Activity [2]: 0.5 log10CFU/ml
- MIC [3]: 0.9 µM
- Activity [4]: Active
- survival at 336 h [5]: 100%
